# Laboratory results reported in ChEMBL document CHEMBL5465560, “Selectivity Literature for EUbOPEN Chemogenomic Library” (2024).
# How the values were obtained:
# [1] = target: T1, Serine/threonine-protein kinase BRSK2 (Homo sapiens) (UniProt Q8IWQ3); assay: Selectivity interaction (KinomeScan (DiscoverX)) EUB0000666a BRSK2; conditions: at 10 µM
# T1 sequence (whole entry): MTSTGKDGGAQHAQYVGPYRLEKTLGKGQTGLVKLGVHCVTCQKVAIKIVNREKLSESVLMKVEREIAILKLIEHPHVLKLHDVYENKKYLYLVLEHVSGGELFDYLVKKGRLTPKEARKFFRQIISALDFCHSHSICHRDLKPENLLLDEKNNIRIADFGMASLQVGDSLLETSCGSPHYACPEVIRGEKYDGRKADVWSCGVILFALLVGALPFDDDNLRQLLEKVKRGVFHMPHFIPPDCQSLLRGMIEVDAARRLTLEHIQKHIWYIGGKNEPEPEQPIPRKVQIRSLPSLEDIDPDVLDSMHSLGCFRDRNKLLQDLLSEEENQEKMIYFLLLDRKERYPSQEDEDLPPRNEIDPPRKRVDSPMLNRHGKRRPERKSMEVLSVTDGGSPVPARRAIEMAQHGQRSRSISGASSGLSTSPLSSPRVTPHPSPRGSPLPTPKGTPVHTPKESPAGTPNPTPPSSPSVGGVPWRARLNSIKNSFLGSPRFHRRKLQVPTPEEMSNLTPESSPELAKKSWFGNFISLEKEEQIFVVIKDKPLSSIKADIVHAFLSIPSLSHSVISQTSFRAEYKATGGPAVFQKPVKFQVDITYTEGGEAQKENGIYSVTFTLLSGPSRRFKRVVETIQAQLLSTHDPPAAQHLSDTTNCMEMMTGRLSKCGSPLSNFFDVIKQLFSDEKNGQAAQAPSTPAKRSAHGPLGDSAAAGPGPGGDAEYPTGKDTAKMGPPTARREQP
# [2] = target: Tyrosine-protein kinase JAK2 (Homo sapiens, UniProt O60674); assay: Selectivity interaction (KinomeScan (DiscoverX)) EUB0000666a JAK2; conditions: at 10 µM
# Tyrosine-protein kinase JAK2, sequence (O60674 whole entry): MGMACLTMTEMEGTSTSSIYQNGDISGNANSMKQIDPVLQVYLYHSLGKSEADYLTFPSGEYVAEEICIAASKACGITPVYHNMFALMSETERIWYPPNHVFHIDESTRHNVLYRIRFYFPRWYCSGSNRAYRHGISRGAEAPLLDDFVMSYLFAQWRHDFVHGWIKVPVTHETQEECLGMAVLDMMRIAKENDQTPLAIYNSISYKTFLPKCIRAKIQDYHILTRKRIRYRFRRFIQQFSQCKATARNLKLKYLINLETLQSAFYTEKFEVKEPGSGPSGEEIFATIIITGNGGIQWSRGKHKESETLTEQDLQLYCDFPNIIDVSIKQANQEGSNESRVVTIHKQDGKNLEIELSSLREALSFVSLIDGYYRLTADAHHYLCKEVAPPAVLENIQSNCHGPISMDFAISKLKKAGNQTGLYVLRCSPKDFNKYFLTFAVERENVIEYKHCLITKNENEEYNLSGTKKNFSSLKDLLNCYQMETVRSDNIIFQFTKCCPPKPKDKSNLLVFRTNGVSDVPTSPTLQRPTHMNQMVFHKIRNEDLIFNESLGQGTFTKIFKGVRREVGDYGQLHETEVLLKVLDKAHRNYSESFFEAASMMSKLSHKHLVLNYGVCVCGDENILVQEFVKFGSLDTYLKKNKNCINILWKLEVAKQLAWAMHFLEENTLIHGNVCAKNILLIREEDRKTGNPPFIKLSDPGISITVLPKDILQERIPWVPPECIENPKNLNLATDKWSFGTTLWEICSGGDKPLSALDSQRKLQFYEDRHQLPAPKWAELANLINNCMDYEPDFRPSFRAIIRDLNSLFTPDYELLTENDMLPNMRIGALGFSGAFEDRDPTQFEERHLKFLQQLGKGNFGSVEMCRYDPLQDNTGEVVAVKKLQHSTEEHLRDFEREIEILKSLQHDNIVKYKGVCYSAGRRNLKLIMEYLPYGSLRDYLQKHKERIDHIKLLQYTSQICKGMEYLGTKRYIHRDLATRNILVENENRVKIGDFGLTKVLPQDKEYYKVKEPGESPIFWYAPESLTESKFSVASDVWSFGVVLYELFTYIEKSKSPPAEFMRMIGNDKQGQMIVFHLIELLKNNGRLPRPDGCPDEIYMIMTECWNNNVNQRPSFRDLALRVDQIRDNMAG
# [3] = test system: Mast/stem cell growth factor receptor Kit (Homo sapiens), P10721 [D816V]; assay: (§1) Selectivity interaction (KinomeScan (DiscoverX)) EUB0000607a KIT; conditions: at 10 µM
# Mast/stem cell growth factor receptor Kit (Homo sapiens), P10721 [D816V], sequence (P10721 whole entry D816V): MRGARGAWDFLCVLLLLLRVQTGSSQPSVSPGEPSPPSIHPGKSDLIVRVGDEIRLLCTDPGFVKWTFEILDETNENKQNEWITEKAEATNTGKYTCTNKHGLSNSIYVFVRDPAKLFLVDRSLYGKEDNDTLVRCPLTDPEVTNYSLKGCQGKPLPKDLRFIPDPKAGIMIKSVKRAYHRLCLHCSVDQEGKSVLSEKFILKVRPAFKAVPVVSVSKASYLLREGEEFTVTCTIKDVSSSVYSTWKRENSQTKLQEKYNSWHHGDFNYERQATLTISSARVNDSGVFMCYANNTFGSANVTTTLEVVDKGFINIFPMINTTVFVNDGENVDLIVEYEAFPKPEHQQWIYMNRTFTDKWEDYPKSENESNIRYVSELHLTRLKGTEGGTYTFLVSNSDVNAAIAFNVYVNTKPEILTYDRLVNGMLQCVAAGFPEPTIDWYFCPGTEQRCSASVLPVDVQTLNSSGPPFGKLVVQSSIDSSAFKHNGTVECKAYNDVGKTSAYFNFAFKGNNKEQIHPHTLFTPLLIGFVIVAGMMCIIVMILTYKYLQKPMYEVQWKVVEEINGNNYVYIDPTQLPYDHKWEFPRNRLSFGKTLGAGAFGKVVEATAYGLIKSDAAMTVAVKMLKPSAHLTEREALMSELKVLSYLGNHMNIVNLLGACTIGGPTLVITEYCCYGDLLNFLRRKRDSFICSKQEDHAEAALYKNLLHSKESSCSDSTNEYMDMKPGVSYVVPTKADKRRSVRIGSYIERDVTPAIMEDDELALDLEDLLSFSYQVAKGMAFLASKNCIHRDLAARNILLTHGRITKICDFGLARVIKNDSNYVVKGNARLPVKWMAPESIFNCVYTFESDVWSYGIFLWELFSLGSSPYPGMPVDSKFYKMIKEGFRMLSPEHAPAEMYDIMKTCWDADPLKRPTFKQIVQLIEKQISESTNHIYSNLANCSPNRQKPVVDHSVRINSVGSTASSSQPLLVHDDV
# [4] = test system: Mast/stem cell growth factor receptor Kit (Homo sapiens), P10721 [V559D]; assay: as §1; conditions: at 10 µM
# Mast/stem cell growth factor receptor Kit (Homo sapiens), P10721 [V559D], sequence (P10721 whole entry V559D): as the sequence (P10721 whole entry D816V) above, with V559D, V816D counted along it
# [5] = target: Serine/threonine-protein kinase PLK3 (Homo sapiens, UniProt Q9H4B4); assay: Selectivity interaction (KinomeScan (DiscoverX)) EUB0000607a PLK3; conditions: at 10 µM
# [6] = target: Epidermal growth factor receptor (Homo sapiens, UniProt P00533); assay: Selectivity interaction (Enyzmatic assay) EUB0000601a EGFR
# Epidermal growth factor receptor, sequence (P00533 whole entry): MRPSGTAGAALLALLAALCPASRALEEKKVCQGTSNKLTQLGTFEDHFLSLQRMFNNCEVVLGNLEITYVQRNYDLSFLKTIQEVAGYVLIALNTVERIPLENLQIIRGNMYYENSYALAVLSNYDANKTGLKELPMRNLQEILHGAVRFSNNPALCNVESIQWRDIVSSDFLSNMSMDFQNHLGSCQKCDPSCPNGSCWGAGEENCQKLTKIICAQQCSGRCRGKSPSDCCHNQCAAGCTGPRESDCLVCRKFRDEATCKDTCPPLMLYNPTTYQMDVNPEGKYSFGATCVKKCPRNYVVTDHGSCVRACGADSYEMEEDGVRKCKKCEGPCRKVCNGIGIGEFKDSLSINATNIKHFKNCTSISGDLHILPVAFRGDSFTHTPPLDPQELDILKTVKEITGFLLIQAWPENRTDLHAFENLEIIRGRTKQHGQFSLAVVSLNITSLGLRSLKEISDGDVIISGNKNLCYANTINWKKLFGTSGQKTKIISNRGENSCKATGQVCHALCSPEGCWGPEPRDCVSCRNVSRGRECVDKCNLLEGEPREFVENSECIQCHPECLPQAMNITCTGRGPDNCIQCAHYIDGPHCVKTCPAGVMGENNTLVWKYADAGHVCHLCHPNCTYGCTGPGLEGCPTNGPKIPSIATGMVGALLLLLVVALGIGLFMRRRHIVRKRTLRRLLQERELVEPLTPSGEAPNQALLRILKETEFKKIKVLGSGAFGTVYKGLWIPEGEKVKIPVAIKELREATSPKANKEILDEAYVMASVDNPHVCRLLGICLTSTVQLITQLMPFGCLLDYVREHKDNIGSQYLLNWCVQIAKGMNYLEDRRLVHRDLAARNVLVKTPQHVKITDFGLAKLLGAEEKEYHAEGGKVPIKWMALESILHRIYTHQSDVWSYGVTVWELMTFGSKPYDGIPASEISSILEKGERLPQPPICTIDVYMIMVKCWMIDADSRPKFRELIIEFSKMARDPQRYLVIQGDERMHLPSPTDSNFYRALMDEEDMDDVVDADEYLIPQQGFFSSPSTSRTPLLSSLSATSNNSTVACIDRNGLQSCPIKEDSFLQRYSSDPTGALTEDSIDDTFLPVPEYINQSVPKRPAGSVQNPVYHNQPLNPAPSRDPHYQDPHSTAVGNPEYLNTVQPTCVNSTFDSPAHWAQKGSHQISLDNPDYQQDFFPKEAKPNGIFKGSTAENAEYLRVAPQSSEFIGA
# [7] = target: T2, Serine/threonine-protein kinase Nek9 (Homo sapiens) (UniProt Q8TD19); assay: Selectivity interaction (KinomeScan (DiscoverX)) EUB0000229b NEK9; conditions: at 10 µM
# T2 sequence (whole entry): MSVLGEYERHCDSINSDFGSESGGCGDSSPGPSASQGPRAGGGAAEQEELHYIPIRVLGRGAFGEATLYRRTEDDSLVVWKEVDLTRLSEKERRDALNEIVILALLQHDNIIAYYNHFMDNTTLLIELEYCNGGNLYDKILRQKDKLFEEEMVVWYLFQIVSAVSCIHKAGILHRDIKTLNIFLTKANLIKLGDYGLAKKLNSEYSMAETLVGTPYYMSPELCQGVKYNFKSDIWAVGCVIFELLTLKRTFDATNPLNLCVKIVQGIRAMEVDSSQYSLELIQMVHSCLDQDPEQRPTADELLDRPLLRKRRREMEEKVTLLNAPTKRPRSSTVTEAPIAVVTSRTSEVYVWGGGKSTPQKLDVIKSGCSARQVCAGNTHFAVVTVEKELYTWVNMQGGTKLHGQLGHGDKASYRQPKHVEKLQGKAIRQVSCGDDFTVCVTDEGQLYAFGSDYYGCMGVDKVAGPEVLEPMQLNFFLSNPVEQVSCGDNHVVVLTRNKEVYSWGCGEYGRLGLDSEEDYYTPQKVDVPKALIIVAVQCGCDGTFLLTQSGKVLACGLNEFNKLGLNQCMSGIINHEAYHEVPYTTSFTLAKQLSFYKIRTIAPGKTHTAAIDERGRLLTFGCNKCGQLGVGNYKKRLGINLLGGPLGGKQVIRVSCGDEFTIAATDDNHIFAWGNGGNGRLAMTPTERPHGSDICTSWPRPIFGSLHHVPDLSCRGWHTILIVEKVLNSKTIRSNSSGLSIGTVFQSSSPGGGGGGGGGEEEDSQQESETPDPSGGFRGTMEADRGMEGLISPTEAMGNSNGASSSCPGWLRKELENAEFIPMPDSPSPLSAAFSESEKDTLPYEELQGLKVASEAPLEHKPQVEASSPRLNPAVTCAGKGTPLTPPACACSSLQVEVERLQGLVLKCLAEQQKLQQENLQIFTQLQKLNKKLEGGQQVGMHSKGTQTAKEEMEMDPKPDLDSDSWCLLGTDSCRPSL
# [8] = target: Protein kinase C delta type (Homo sapiens) (UniProt Q05655); assay: Selectivity interaction (KinomeScan (DiscoverX)) EUB0000092b PRKCD; conditions: at 10 µM
# [9] = target: Non-receptor tyrosine-protein kinase TYK2 (Homo sapiens, UniProt P29597); assay: Selectivity interaction (Kinase panel (Carna Biosciences)) EUB0001542aTs TYK2; conditions: at 1 µM
# [10] = test system: Serine/threonine-protein kinase B-raf (Homo sapiens), P15056 [V600E]; assay: Selectivity interaction (KinomeScan (DiscoverX)) EUB0000618a BRAF; conditions: at 10 µM
# Serine/threonine-protein kinase B-raf (Homo sapiens), P15056 [V600E], sequence (P15056 whole entry V600E): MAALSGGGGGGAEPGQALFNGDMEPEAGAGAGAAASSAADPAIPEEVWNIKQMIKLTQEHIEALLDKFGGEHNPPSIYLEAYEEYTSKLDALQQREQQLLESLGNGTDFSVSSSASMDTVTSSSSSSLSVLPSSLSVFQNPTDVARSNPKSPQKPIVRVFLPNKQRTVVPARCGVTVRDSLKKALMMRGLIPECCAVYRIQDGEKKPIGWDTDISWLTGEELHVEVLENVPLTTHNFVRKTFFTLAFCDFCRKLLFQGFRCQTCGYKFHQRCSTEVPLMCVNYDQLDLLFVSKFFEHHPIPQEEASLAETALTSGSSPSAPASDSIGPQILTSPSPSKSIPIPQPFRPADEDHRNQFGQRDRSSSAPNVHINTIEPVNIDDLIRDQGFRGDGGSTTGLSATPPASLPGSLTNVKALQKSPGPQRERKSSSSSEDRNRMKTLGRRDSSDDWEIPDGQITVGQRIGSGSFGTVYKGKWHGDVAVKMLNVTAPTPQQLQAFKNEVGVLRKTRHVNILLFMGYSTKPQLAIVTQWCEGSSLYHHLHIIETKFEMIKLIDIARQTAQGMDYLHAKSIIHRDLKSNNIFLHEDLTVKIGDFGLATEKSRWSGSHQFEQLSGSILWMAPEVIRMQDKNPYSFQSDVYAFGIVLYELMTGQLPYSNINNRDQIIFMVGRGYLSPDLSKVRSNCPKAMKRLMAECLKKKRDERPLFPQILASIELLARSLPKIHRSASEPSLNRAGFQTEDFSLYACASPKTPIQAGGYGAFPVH
# [11] = target: Serine/threonine-protein kinase 38 (Homo sapiens) (UniProt Q15208); assay: Selectivity interaction (KinomeScan (DiscoverX)) EUB0000618a STK38; conditions: at 10 µM
# Serine/threonine-protein kinase 38 (Homo sapiens), sequence (Q15208 2-465 limits assumed): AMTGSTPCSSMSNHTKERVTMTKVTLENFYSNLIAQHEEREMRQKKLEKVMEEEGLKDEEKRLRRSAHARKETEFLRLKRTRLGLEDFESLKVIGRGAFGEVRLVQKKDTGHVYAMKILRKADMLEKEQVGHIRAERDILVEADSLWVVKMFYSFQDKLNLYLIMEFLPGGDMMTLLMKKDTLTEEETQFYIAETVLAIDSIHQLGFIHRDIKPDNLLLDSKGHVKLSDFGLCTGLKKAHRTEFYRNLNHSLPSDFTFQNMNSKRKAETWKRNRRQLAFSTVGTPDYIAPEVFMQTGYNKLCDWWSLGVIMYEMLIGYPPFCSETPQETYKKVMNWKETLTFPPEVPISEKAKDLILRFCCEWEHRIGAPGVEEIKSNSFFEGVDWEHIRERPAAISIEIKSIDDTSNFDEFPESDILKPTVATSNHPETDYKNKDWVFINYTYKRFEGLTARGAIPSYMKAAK
# [12] = target: T3, Phosphatidylinositol 5-phosphate 4-kinase type-2 alpha (Homo sapiens) (UniProt P48426); assay: Selectivity interaction (ActivX KiNativ screen (ex vivo kinase selectivity in human PBMCs)) EUB0001619a PIP4K2A; assay type: cell-based; conditions: PBMC, at 1 µM
# T3 sequence (whole entry): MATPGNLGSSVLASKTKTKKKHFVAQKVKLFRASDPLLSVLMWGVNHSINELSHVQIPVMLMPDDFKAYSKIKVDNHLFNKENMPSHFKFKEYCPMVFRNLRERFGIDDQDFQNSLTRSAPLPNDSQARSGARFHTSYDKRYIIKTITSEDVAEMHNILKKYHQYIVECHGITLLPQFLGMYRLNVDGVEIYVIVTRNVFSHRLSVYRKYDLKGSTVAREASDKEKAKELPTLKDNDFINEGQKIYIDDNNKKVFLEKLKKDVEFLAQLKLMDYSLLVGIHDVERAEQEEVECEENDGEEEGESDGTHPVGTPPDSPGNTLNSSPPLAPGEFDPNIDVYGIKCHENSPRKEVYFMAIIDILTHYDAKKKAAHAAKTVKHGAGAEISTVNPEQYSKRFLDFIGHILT
compound,measurement,setting,value
O=C(NOC[C@H](O)CO)c1ccc(F)c(F)c1Nc1ccc(I)cc1F,% of control,[1],100%
same,% of control,[2],100%
CNC(=O)Nc1ccc(-c2nc(N3CC4CCC(C3)O4)c3cnn(C4CCC5(CC4)OCCO5)c3n2)cc1,% of control,[3],82%
same,% of control,[4],85%
same,% of control,[5],100%
CCc1cc(Nc2nccc(-c3c(-c4ccc(OC)c(C(=O)Nc5c(F)cccc5F)c4)nc4ccccn34)n2)c(OC)cc1N1CCC(N2CCN(S(C)(=O)=O)CC2)CC1,IC50,[6],> 10 µM
COc1cc(N(C)c2ccnc3ccc(C(F)(F)F)cc23)cc(OC)c1OC,% binding,[7],93%
CCC(=O)N1CCN(c2ccc(-n3c(=O)ccc4cnc5ccc(-c6cnc7ccccc7c6)cc5c43)cc2C(F)(F)F)CC1,% of control,[8],82%
Cn1cc(Nc2nccc(N3CC4CCC(C3)N4C(=O)[C@@H]3CC3(F)F)n2)cn1,% of inhibition,[9],98%
O[C@H]1CC[C@H](Nc2ncc3nc(Nc4c(F)cc(F)cc4F)n([C@H]4CCOC4)c3n2)CC1,% of control,[10],98%
same,% of control,[11],100%
N#Cc1cccc(-c2c[nH]c3ncnc(N4CCOCC4)c23)c1,% of inhibition,[12],2%
